Reference: ChEMBL document CHEMBL1201862, “PubChem BioAssay data set” (2004)
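The compound was tested at five concentrations on cells cultured in 96-well plates, with a 48-hour exposure period. GI50 is the concentration that inhibits growth by half.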 Active and inactive are the calls of the source. Cut-off read from the data, not from the text of the source: active = GI50 up to about 1.1 µM and inactive = higher.

Columns and labels:
Experiment in all cases: NCI anticancer screen, dose series, 48 h
HCT-116 = test system: HCT-116
LOX IMVI = test system: LOX IMVI
UACC-257 = test system: UACC-257
RXF 393 = test system: RXF 393
U-251 = test system: U-251
SF-268 = test system: SF-268
MDA-MB-435 = test system: MDA-MB-435
A498 = test system: A498
SR = test system: SR
CAKI-1 = test system: CAKI-1
UACC-62 = test system: UACC-62
HL-60 = test system: HL-60
HOP-92 = test system: HOP-92
OVCAR-5 = test system: OVCAR-5
SK-OV-3 = test system: SK-OV-3
NCI-H522 = test system: NCI-H522
Hs-578T = test system: Hs-578T
HCT-15 = test system: HCT-15
SK-MEL-28 = test system: SK-MEL-28
PC-3 = test system: PC-3

Structure (SMILES)	GI50 (HCT-116)	GI50 (LOX IMVI)	GI50 (UACC-257)	GI50 (RXF 393)	GI50 (U-251)	GI50 (SF-268)	GI50 (MDA-MB-435)	GI50 (A498)	GI50 (SR)	GI50 (CAKI-1)	GI50 (UACC-62)	GI50 (HL-60)	GI50 (HOP-92)	GI50 (OVCAR-5)	GI50 (SK-OV-3)	GI50 (NCI-H522)	GI50 (Hs-578T)	GI50 (HCT-15) [µM]	GI50 (SK-MEL-28)	GI50 (PC-3)
CC(C)(C)OC(=O)NCCCCC1NC(=O)[C@@H]2Cc3c([nH]c4ccccc34)C(c3ccccc3)N2C1=O (stereo not given in full)	29.7 µM (inactive)	19.9 µM (inactive)	35.6 µM (inactive)	14.7 µM (inactive)	35.1 µM (inactive)	14 µM (inactive)	34.2 µM (inactive)	72.6 µM (inactive)	13.6 µM (inactive)	50.5 µM (inactive)	23.4 µM (inactive)	21.5 µM (inactive)	22.8 µM (inactive)	53.8 µM (inactive)	50.4 µM (inactive)	23 µM (inactive)	12.1 µM (inactive)	31.1	64.6 µM (inactive)	33.8 µM (inactive)
O=c1oc2ncccc2n1Cc1ccc([N+](=O)[O-])cc1	68.2 µM (inactive)	> 100 µM (inactive)	> 100 µM (inactive)	> 100 µM (inactive)	> 100 µM (inactive)	> 100 µM (inactive)	> 100 µM (inactive)	> 100 µM (inactive)	> 100 µM (inactive)	> 100 µM (inactive)	> 100 µM (inactive)	> 100 µM (inactive)	> 100 µM (inactive)	> 100 µM (inactive)	> 100 µM (inactive)	> 100 µM (inactive)	> 100 µM (inactive)	> 100	> 100 µM (inactive)	> 100 µM (inactive)
COC(=O)/C=C\C(C#N)(C#N)/N=C/c1ccc(C)cc1	1.76 µM (inactive)	2.33 µM (inactive)	4.24 µM (inactive)	1.9 µM (inactive)	13 µM (inactive)	3.78 µM (inactive)	2.21 µM (inactive)	17.7 µM (inactive)	0.706 µM (active)	2.59 µM (inactive)	14.9 µM (inactive)	2.52 µM (inactive)	1.09 µM (active)	19.7 µM (inactive)	17.6 µM (inactive)	0.378 µM (active)	20.5 µM (inactive)	2.56	5.5 µM (inactive)	6.44 µM (inactive)
Oc1ccc2ccccc2c1-c1c(Nc2ccccc2)ccc2ccccc12	11.6 µM (inactive)	19.4 µM (inactive)	18.9 µM (inactive)	17.2 µM (inactive)	21.8 µM (inactive)	16.7 µM (inactive)	6.34 µM (inactive)	18.1 µM (inactive)	16 µM (inactive)	14.9 µM (inactive)	14.9 µM (inactive)	19.5 µM (inactive)	1.32 µM (inactive)	16.3 µM (inactive)	6.08 µM (inactive)	15.8 µM (inactive)	19.9 µM (inactive)	> 38	13.9 µM (inactive)	18.4 µM (inactive)
CCSC12OC3(CCCCCN3C1=O)C1C(=O)N(c3ccccc3)C(=O)C12 (stereo not given)	> 100 µM (inactive)	> 100 µM (inactive)	> 100 µM (inactive)	> 100 µM (inactive)	> 100 µM (inactive)	> 100 µM (inactive)	> 100 µM (inactive)	> 100 µM (inactive)	> 100 µM (inactive)	> 100 µM (inactive)	> 100 µM (inactive)	> 100 µM (inactive)	> 100 µM (inactive)	> 100 µM (inactive)	> 100 µM (inactive)	> 100 µM (inactive)	> 100 µM (inactive)	> 100	> 100 µM (inactive)	> 100 µM (inactive)
Oc1nc(-c2cccc(F)c2)nc2ccccc12	27.2 µM (inactive)	> 100 µM (inactive)	> 91.6 µM (inactive)	29.9 µM (inactive)	36.5 µM (inactive)	27.1 µM (inactive)	> 86.1 µM (inactive)	30.3 µM (inactive)	> 77.3 µM (inactive)	> 100 µM (inactive)	23.1 µM (inactive)	> 100 µM (inactive)	30.7 µM (inactive)	> 100 µM (inactive)	28.7 µM (inactive)	43.9 µM (inactive)	15.7 µM (inactive)	> 100	> 76.7 µM (inactive)	55.5 µM (inactive)
CCN(CC)C(=S)SNCc1ccc(S(N)(=O)=O)cc1	13.2 µM (inactive)	13.5 µM (inactive)	17.1 µM (inactive)	18.1 µM (inactive)	11.2 µM (inactive)	12.9 µM (inactive)	19.5 µM (inactive)	> 57.1 µM (inactive)	1.28 µM (inactive)	14.7 µM (inactive)	24.9 µM (inactive)	4.54 µM (inactive)	22.5 µM (inactive)	14 µM (inactive)	40.1 µM (inactive)	0.0191 µM (active)	19.8 µM (inactive)	19.1	18.2 µM (inactive)	13.1 µM (inactive)
